From article PMC8035250 (ChemMedChem, 2021)
Converted amounts (≈) assume the structure as drawn.

Experiments:
osteoclastogenesis = experiment: In vitro osteoclast differentiation assay; type: cell-based, mice; conditions: 10 μM inhibitor, rM-CSF and RANKL, 5–7 d
[1] = ref 14b, cited from earlier work
[2] = previously reported; ref 14b; cited from earlier work
[3] = previously reported; ref 14b; cited from earlier work; remark: listed apart in the source
[4] = previously reported; ref 14b; cited from earlier work; remark: listed apart in the source
[5] = tested on: monocytes, MSCs, or mature osteoclasts; conditions: even at a concentration of 10 μM; ref manuscript submitted; cited from earlier work
[6] = tested on: MDA-MB-231 breast cancer xenograft; conditions: cited from earlier work
[7] = cited from earlier work

SMILES	Osteoclastogenesis level compared with control (osteoclastogenesis) [%]	Solubility ([1]; converted from […] with MW 499.17 g/mol) [µg/mL]	Solubility class in words ([1]; poor defined as <10 μg/mL or <20 μM)	Human microsome half-life [2] [min]	Rat microsome half-life [3] [min]	Mouse microsome half-life [4] [min]	Toxicity towards monocytes, MSCs, or mature osteoclasts [5]	MDA-MB-231 breast cancer xenograft growth [6]	Osteolytic damage ([6]; in vivo prevention study)	Creatine kinase (measure of muscle toxicity) [7]
CNC(=O)[C@@H](NC(=O)c1ccc(-c2ccc(CSc3nc4c(c(=O)[nH]3)CCC4)c(F)c2)o1)C(C)C [RF036]	24	7.74 (≈ 15.5 µM)	poor solubility	12	9	20	not due to the compound being toxic	–	–	–
COCCC1(Oc2ccc(Oc3ccc(-c4nc(-c5ccc(F)cc5)co4)cc3)cc2)C(=O)NC(=O)NC1=O [compound 28, 5-(4-{4-[4-(4-fluorophenyl)-1,3-oxazol-2-yl]phenoxy}phenoxy)-5-(2-methoxyethyl)-pyrimidine-2,4,6 (1H,3H,5H)-trione]	–	–	–	–	–	–	–	inhibited MDA-MB-231 breast cancer xenograft growth	significantly reduced osteolytic damage	did not cause an increase in creatine kinase
